Measured values published in article PMC11091967, “Silicon-Rhodamine Functionalized Evocalcet Probes Potently and Selectively Label Calcium Sensing Receptors In Vitro, In Vivo, and Ex Vivo” (ACS Pharmacology & Translational Science, 2024).

What was measured:
human CaSR [1] = target: T1, human CaSR (Homo sapiens, UniProt P41180); assay: In vitro labeling of CaSR expressing (HCAR) and control (CCL39) cells, fluorescence microscopy; type: cell-based; settings: for fold increase in skewness of pixel intensity distribution, CaSR+ (HCAR) vs CaSR- (CCL39) cells: 500 nM probe; for fold mean fluorescence difference between CaSR+ and CaSR- cells: 72 h incubation
T1 construct: host or cells: CCL39 hamster lung fibroblasts stably transfected (HCAR), Geneticin selection
T1 sequence (P41180 20-1078): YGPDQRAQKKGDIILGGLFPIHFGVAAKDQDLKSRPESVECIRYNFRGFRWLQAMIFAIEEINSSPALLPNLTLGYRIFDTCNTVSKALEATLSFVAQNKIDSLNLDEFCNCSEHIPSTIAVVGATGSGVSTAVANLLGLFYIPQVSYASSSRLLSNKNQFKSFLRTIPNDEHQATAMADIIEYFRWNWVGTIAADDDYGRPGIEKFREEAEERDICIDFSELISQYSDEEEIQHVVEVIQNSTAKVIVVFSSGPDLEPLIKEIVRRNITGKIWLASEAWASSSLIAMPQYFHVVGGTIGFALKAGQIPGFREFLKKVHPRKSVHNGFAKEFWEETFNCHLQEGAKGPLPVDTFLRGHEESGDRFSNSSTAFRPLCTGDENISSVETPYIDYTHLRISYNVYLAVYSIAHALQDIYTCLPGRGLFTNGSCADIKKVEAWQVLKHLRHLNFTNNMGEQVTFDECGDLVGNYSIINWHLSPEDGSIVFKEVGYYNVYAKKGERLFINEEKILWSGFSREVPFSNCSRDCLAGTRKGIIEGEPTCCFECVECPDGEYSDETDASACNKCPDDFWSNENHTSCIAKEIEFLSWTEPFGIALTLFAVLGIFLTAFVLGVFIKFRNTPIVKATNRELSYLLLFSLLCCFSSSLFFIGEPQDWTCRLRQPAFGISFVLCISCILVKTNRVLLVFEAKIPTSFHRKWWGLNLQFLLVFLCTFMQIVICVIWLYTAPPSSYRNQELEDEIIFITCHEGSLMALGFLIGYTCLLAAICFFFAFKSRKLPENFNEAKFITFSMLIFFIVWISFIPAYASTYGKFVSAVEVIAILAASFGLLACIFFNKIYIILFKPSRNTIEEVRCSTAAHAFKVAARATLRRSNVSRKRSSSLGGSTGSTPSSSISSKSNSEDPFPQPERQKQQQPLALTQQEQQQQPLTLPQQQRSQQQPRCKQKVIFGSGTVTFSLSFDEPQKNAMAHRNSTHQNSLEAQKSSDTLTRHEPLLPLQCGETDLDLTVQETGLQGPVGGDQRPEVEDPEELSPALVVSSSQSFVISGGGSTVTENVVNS
Experimental: HCAR (CaSR+) and CCL39 (CaSR−) cells were kindly obtained from Novartis AG (Basel, Switzerland) and validated in house. The cells were seeded into μ-slide 18 well plates (ibidi, 81816) at a density of 5000 cells per well and were incubated for 24 h under standard culturing conditions. As our preliminary data indicated considerable nonspecific labeling of dying cells and cellular debris, a viability staining was introduced to ensure probe specificity.[29] Thus, after washing twice with HBSS, cells were incubated in 10 μM Calcein AM solution containing 0.02% Pluronic F-127 and 0.1% DMSO for 45 min at 37 °C. The solution was then removed and washed twice in HBSS before the addition of the HBSS solution containing the SiR probes. All probe solutions were protected from light exposure and contained 0.5% DMSO and various concentrations of BSA depending on the experiment. Incubation with the fluorescent probes was 20 min long, after which a single washing step was introduced with HBSS before imaging. Images of the cells (Calcein: FITC channel, SiR: Cy5 channel) were acquired with a Nikon Eclipse TI2 inverted wide-field fluorescence microscope using a 60× magnification oil immersion objective (Nikon CFI Plan Fluor, 60×, NA = 0.85). For each well, a minimum of 3 images were acquired. For each image, cells were segmented to generate labels on the FITC channel postacquisition using the deep neural network-based Cellpose package in Python 3.9 (model_type: cyto2, diameter: 200, flow_threshold: 0.4).[30] To normalize pixel intensity values across images, for each image, a background value was calculated by taking the average pixel intensity value of the pixels in which no cellular label was present and were negative for the EvoSiR label (triangle thresholding used). For each cell, the skewness of the value distribution and the mean of the Cy5 pixel intensities were calculated. The procedure for evaluating the long-term labeling (72 h) of EvoSiR probes on CCL39 and HCAR cells was similar, with the following modifications: images were retrieved using 10× magnification air objectives (Nikon CFI Plan Fluor 10×, NA = 0.3), in the neural network model, the diameter parameter was set to 30, and only the mean Cy5 pixel intensities per cell object were retrieved.

human CaSR [2] = target: T1, human CaSR; assay: CaSR binding affinity estimated from differential fluorescence between HCAR (CaSR+) and CCL39 (CaSR-) cells
Experimental: Hamster lung fibroblasts (CCL39, CaSR−) expressing the recombinant human CaSR (HCAR, CaSR+) and nontransected controls were kindly provided by Novartis AG and were kept in standard culturing conditions (37 °C, 5% CO2) in 1/2 DMEM (Roth, 9005.1)—1/2 F-12 (Sigma, N4888–500 mL) media containing 10% FBS. Media for the HCAR cells contained 500 μg/mL Geneticin as a selection antibiotic (Thermo Fisher, 10131035). Upon reaching 90–95% confluence, cells were detached and seeded into 96-well plates (PerkinElmer, 6005182) at a concentration of 35,000 cells per well and were incubated for 24 h before the experiment. For the functional CaSR calcium assay, cells were first washed twice with HBSS medium (Sigma, H6648), and were incubated in HBSS containing 5 μM Fluo-8 AM and 0.1 mM CaCl2 for 30 min at 37 °C. Calcium transients were measured upon addition of 0.5 mM CaCl2 with the FLIPR Tetra high-throughput cellular screening systems using the 470–495 nm LED excitation and 515–575 nm bandpass emission filters. Probe solutions contained 0.5% DMSO and were added to the cells 10 min prior to the measurement. dF/F0 values were calculated as a change in the peak fluorescence value of the transient for the first 200 data points normalized to the background fluorescence of the well. […] Both cells were washed with HBSS medium twice and then incubated for 10 min at 37 °C in HBSS medium containing 0.1% BSA in the presence or absence of 10 μM evocalcet. Upon the removal of media, cells were incubated in various concentrations of EvoSiR4 and EvoSiR6 in HBSS containing 0.1% BSA for 30 min at 37 °C and were subsequently washed 3 times with 0.1% BSA and resuspended in DMSO before the fluorometric measurement. The fluorescence was measured using a Tecan GENios pro microplate reader with the following parameters: λex = 612 nm, λem = 670 nm, gain = 50 AU. Data for the EvoSiR probes and the evocalcet competition is reported as CaSR-specific fluorescence, which was calculated by dividing the absolute fluorescence of the HCAR cells with the absolute fluorescence of the CCL39 cells for each concentration.

SMILES	fold increase in skewness of pixel intensity distribution, CaSR+ (HCAR) vs CaSR- (CCL39) cells (human CaSR [1]; 0.1% BSA) [fold]	concentration above which skewness significantly increased for HCAR compared to CCL39 (human CaSR [1]; 1% BSA)	fold mean fluorescence difference between CaSR+ and CaSR- cells (human CaSR [1]; 50 nM) [fold]	fold mean fluorescence difference between CaSR+ and CaSR- cells (human CaSR [1]; 200 nM) [fold]	concentration at which skewness values saturate (human CaSR [1]; HCAR (CaSR+) cells, 0.1% BSA) [nM]	concentration above which skewness significantly increased for HCAR compared to CCL39 (human CaSR [1]; no BSA and 0.1% BSA)	Kd (human CaSR [2]) [nM]	reduction in skewness of pixel intensity distribution of EvoSiR4 labeling by competition (human CaSR [1]; CaSR+ cells preincubated with 0–500 nM evocalcet in 0.1% BSA) [%]	effect of preincubation on CaSR-specific increase in relative fluorescence of EvoSiR probes (human CaSR [2]; 10 μM evocalcet preincubation)
Cc1cc(C(=O)NCCCCNC(=O)Cc2ccc(N3CC[C@H](N[C@H](C)c4cccc5ccccc45)C3)cc2)ccc1C1=C2C=CC(=[N+](C)C)C=C2[Si](C)(C)c2cc(N(C)C)ccc21 [EvoSiR4]	3.7	above 2500 nM	1.3	2.5	500	above 500 nM	53.6 ± 18.4	–	–
Cc1cc(C(=O)NCCCCCCNC(=O)Cc2ccc(N3CC[C@H](N[C@H](C)c4cccc5ccccc45)C3)cc2)ccc1C1=C2C=CC(=[N+](C)C)C=C2[Si](C)(C)c2cc(N(C)C)ccc21 [EvoSiR6]	2.3	–	–	–	–	–	71 ± 9.56	–	–
C[C@@H](N[C@H]1CCN(c2ccc(CC(=O)O)cc2)C1)c1cccc2ccccc12 [evocalcet]	–	–	–	–	–	–	–	55	completely abolished
